{
  "source": "ChEMBL document CHEMBL4177526",
  "about": "“Discovery and structure activity relationship of the first potent cryptosporidium FIKK kinase inhibitor” (Bioorg Med Chem, 2017)",
  "key": {"[1]": {"target": "Serine/threonine-protein kinase Pink1, mitochondrial (Tribolium castaneum) (UniProt D6WMX4)", "test": "Inhibition of Tribolium castaneum PINK1 (1 to 570 residues) assessed as residual activity at 500 nM in presence of 33P-ATP by scintillation counting method relative to control"}, "[2]": {"target": "Serine/threonine-protein kinase TAO1 (Homo sapiens) (UniProt Q7L7X3)", "sequence (Q7L7X3 whole entry, the tested form may be a part)": "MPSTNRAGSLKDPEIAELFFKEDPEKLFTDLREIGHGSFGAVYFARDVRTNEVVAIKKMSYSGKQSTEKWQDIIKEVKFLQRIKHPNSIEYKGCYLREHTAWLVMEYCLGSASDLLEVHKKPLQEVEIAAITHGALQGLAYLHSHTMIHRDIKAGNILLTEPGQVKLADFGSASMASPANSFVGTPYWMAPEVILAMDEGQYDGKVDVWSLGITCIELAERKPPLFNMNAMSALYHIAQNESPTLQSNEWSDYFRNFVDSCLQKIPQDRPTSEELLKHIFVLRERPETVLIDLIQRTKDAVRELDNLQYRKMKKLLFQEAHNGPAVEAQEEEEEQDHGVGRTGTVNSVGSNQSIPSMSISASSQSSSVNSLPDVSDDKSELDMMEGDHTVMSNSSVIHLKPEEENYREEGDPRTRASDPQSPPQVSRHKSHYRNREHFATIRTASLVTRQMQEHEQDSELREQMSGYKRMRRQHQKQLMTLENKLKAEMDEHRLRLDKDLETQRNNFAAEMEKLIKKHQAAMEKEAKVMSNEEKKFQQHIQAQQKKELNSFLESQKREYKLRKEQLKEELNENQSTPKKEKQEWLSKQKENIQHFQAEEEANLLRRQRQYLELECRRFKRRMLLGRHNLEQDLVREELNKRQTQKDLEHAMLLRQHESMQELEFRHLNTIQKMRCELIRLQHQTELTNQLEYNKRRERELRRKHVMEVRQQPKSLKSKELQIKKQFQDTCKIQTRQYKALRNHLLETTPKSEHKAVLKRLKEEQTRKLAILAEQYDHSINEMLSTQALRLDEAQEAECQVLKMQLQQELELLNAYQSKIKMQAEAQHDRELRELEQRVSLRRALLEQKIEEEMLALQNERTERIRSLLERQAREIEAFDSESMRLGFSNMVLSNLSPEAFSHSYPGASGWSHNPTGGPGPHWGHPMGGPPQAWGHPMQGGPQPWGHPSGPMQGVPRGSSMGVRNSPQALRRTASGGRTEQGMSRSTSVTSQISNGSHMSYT", "test": "Inhibition of human TAO1 (1 to 356 residues) assessed as residual activity at 500 nM in presence of 33P-ATP by filter binding assay relative to control"}, "[3]": {"target": "serine/threonine-protein kinase D1 (Homo sapiens) (UniProt Q15139)", "test": "Inhibition of human PKD1 (2 to 912 residues) assessed as residual activity at 500 nM in presence of 33P-ATP by filter binding assay relative to control"}, "[4]": {"target": "MAP kinase-activated protein kinase 2 (Homo sapiens) (UniProt P49137)", "test": "Inhibition of human MAPKAPK2 (46 to 400 residues) assessed as residual activity at 500 nM in presence of 33P-ATP by filter binding assay relative to control"}, "[5]": {"target": "Insulin receptor (Homo sapiens) (UniProt P06213)", "test": "Inhibition of human IR (1001 to 1382 residues) assessed as residual activity at 500 nM in presence of 33P-ATP by filter binding assay relative to control"}, "[6]": {"target": "Protein kinase C alpha type (Homo sapiens) (UniProt P17252)", "test": "Inhibition of human PKCalpha (1 to 672 residues) assessed as residual activity at 500 nM in presence of 33P-ATP by filter binding assay relative to control"}, "[7]": {"test": "Ratio of EC50 for antiparasitic activity against Cryptosporidium parvum Iowa oocysts infected in human HCT8 cells to IC50 for Cryptosporidium parvum CDPK1", "type": "functional"}, "[8]": {"target": "Serine/threonine-protein kinase pim-2 (Homo sapiens) (UniProt Q9P1W9)", "test": "Inhibition of human PIM2 (2 to 334 residues) assessed as residual activity at 500 nM in presence of 33P-ATP by filter binding assay relative to control"}, "[9]": {"target": "Protein kinase C gamma type (Homo sapiens) (UniProt P05129)", "test": "Inhibition of human PKCgamma (1 to 697 residues) assessed as residual activity at 500 nM in presence of 33P-ATP by filter binding assay relative to control"}, "[10]": {"test": "Ratio of EC50 for antiparasitic activity against Cryptosporidium parvum Iowa oocysts infected in human HCT8 cells to IC50 for recombinant Cryptosporidium parvum FIKK", "type": "functional, cell-based"}, "[11]": {"target": "Vascular endothelial growth factor receptor 2 (Homo sapiens) (UniProt P35968)", "sequence (P35968 whole entry, looked up)": "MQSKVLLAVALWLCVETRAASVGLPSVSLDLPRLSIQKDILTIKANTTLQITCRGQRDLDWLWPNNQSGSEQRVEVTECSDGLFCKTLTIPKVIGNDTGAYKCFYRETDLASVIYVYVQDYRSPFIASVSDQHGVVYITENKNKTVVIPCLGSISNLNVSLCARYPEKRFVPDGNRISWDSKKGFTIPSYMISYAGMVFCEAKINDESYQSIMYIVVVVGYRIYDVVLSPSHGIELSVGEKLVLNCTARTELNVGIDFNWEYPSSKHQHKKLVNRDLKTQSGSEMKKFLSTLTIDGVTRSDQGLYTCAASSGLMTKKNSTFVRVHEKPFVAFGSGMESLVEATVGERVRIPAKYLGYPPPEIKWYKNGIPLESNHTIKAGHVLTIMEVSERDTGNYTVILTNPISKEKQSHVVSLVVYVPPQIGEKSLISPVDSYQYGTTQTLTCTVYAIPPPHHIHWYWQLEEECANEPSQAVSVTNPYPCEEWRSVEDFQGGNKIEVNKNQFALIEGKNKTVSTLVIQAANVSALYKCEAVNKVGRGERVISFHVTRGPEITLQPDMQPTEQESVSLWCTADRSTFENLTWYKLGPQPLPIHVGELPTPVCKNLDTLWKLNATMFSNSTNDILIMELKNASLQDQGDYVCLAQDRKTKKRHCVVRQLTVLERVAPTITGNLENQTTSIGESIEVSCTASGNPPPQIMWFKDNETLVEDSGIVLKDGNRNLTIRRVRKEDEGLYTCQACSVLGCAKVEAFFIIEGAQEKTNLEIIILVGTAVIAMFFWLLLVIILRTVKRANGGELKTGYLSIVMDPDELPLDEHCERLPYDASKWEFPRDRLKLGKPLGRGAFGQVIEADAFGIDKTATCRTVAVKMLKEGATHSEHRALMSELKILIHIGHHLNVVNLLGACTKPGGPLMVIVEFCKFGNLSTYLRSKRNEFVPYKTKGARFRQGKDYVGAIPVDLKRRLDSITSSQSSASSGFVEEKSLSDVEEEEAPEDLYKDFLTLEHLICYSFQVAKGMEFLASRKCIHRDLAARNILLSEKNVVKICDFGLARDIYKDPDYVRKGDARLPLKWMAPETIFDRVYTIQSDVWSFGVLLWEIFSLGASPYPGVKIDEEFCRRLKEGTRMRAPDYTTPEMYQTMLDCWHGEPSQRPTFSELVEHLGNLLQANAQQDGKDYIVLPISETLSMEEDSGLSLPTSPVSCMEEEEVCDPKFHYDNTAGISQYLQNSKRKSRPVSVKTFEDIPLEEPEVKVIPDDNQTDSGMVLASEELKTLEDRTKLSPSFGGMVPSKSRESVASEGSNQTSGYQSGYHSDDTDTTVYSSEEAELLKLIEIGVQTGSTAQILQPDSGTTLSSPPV", "test": "Inhibition of human VEGFR2 (unknown origin) at 500 nM relative to control"}, "[12]": {"target": "Insulin-like growth factor 1 receptor (Homo sapiens) (UniProt P08069)", "test": "Inhibition of human IGF1R (954 to 1367 residues) assessed as residual activity at 500 nM in presence of 33P-ATP by filter binding assay relative to control"}, "[13]": {"target": "Mitogen-activated protein kinase 12 (Homo sapiens) (UniProt P53778)", "test": "Inhibition of human p38gamma (1 to 367 residues) assessed as residual activity at 500 nM in presence of 33P-ATP by filter binding assay relative to control"}, "[14]": {"target": "Glycogen synthase kinase-3 beta (Homo sapiens) (UniProt P49841)", "test": "Inhibition of human GSK3beta (2 to 420 residues) assessed as residual activity at 500 nM in presence of 33P-ATP by filter binding assay relative to control"}, "[15]": {"tested_on": "Ribosomal protein S6 kinase beta-1 (Homo sapiens), P23443 [T412E]", "test": "Inhibition of human S6K1 T412E mutant (1 to 421 residues) assessed as residual activity at 500 nM in presence of 33P-ATP by filter binding assay relative to control"}, "[16]": {"target": "Tyrosine-protein kinase Yes (Homo sapiens) (UniProt P07947)", "test": "Inhibition of human YES1 (1 to 543 residues) at 500 nM by filter binding assay relative to control"}, "[17]": {"target": "Tyrosine-protein kinase JAK2 (Homo sapiens) (UniProt O60674)", "sequence (O60674 whole entry)": "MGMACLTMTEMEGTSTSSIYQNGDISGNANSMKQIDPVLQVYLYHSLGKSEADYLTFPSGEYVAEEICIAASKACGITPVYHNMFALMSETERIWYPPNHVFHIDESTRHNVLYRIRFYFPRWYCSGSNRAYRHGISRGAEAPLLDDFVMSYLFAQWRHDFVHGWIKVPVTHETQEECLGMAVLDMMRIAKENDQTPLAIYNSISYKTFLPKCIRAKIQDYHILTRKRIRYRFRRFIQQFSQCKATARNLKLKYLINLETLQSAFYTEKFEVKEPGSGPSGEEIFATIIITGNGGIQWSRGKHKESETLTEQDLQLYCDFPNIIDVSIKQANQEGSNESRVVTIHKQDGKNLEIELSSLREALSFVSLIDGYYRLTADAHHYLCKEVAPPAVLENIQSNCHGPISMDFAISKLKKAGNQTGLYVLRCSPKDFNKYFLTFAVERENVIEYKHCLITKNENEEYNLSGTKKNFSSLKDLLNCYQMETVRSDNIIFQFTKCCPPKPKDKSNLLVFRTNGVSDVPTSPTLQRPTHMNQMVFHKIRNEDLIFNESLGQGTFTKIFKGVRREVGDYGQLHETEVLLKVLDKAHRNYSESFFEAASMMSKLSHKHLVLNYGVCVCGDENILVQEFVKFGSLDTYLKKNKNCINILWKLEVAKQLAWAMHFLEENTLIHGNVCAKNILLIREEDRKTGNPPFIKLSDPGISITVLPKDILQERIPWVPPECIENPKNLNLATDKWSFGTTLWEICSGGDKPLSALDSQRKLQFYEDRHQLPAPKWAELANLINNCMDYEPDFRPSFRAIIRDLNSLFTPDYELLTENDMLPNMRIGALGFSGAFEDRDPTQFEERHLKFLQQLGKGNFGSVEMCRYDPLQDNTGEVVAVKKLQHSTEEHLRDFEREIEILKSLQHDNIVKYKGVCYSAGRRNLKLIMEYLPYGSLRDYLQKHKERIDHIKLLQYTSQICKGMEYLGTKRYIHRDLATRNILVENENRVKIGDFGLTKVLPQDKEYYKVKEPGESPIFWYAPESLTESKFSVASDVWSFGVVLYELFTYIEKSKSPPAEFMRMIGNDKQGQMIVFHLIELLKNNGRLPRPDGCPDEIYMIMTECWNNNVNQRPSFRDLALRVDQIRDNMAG", "test": "Inhibition of JAK2 (unknown origin) assessed as residual activity at 500 nM relative to control"}, "[18]": {"target": "Ephrin type-A receptor 2 (Homo sapiens) (UniProt P29317)", "test": "Inhibition of human EPHA2 (591 to 976 residues) assessed as residual activity at 500 nM in presence of 33P-ATP by filter binding assay relative to control"}, "[19]": {"target": "MAP/microtubule affinity-regulating kinase 4 (Homo sapiens) (UniProt Q96L34)", "test": "Inhibition of human MARK4 (1 to 367 residues) assessed as residual activity at 500 nM in presence of 33P-ATP by filter binding assay relative to control"}, "[20]": {"target": "Serine/threonine-protein kinase MARK1 (Homo sapiens) (UniProt Q9P0L2)", "test": "Inhibition of human MARK1 (2 to 795 residues) assessed as residual activity at 500 nM in presence of 33P-ATP by filter binding assay relative to control"}, "[21]": {"target": "Serine/threonine-protein kinase SIK2 (Homo sapiens) (UniProt Q9H0K1)", "test": "Inhibition of human SIK2 (2 to 926 residues) assessed as residual activity at 500 nM in presence of 33P-ATP by filter binding assay relative to control"}, "[22]": {"target": "Mitogen-activated protein kinase kinase kinase 5 (Homo sapiens) (UniProt Q99683)", "test": "Inhibition of human ASK1 (670 to 950 residues) assessed as residual activity at 500 nM in presence of 33P-ATP by filter binding assay relative to control"}, "[23]": {"target": "Myosin light chain kinase, smooth muscle (Homo sapiens) (UniProt Q15746)", "test": "Inhibition of human smMLCK (475 to 838 residues) assessed as residual activity at 500 nM in presence of 33P-ATP by filter binding assay relative to control"}, "[24]": {"target": "Serine/threonine-protein kinase PLK1 (Homo sapiens) (UniProt P53350)", "test": "Inhibition of human PLK1 (1 to 603 residues) assessed as residual activity at 500 nM in presence of 33P-ATP by filter binding assay relative to control"}, "[25]": {"target": "Mitogen-activated protein kinase 11 (Homo sapiens) (UniProt Q15759)", "sequence (Q15759 whole entry, the tested form may be a part)": "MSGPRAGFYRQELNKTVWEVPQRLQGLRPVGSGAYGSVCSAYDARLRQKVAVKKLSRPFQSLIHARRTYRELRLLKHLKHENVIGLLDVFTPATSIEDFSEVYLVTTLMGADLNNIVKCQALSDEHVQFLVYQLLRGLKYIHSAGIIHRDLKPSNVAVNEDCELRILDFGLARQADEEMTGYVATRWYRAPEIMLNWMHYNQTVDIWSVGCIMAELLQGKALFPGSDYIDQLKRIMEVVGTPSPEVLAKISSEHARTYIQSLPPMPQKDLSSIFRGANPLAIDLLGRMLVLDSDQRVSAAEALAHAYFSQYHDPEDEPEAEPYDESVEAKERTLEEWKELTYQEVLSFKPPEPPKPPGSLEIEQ", "test": "Inhibition of human p38beta (1 to 364 residues) assessed as residual activity at 500 nM in presence of 33P-ATP by filter binding assay relative to control"}, "[26]": {"target": "Dual specificity protein kinase CLK2 (Homo sapiens) (UniProt P49760)", "sequence (P49760 whole entry, looked up, the tested form may be a part)": "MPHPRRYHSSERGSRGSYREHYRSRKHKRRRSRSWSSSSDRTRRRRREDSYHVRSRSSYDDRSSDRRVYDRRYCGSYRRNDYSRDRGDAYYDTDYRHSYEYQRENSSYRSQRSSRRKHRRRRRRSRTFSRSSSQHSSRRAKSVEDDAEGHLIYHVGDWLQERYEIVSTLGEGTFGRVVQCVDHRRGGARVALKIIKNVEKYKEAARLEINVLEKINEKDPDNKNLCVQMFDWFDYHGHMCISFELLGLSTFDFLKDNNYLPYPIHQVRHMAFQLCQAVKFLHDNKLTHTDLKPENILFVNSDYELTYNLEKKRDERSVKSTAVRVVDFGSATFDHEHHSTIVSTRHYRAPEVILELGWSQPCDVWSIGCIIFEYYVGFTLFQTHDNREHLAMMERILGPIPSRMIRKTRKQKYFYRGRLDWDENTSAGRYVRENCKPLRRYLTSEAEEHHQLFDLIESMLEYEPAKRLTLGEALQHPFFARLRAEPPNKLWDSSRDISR", "test": "Inhibition of human CLK2 (138 to 499 residues) assessed as residual activity at 500 nM in presence of 33P-ATP by filter binding assay relative to control"}, "[27]": {"target": "Inhibitor of nuclear factor kappa-B kinase subunit epsilon (Homo sapiens) (UniProt Q14164)", "sequence (Q14164 whole entry, the tested form may be a part)": "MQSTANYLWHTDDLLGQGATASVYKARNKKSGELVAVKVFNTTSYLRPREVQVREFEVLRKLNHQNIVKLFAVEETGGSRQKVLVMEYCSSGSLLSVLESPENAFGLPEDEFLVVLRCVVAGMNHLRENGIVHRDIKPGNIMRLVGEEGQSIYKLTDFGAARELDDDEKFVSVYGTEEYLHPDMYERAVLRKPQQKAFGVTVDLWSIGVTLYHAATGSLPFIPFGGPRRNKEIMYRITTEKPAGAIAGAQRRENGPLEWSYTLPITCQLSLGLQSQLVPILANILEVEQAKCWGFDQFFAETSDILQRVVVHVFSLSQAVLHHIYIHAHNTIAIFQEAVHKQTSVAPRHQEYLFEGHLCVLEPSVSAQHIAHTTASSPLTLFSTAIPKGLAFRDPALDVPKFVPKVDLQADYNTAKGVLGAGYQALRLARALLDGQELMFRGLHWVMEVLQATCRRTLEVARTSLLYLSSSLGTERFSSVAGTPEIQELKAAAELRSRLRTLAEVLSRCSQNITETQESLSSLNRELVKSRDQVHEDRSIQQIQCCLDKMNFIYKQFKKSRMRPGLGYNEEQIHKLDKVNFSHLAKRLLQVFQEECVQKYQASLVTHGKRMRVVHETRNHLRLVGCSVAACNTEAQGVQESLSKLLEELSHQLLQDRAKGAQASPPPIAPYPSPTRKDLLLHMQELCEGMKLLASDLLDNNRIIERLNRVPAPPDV", "test": "Inhibition of human IKKepsilon (1 to 716 residues) assessed as residual activity at 500 nM in presence of 33P-ATP by filter binding assay relative to control"}},
  "data": [
    {"molecule": "Cc1cccc(-c2nc(N)sc2-c2ccc3ncccc3n2)c1", "values": [
      {"measurement": "Activity", "setting": "[1]", "result": 119, "unit": "%"},
      {"measurement": "Activity", "setting": "[2]", "result": 99, "unit": "%"},
      {"measurement": "Activity", "setting": "[3]", "result": 9, "unit": "%"},
      {"measurement": "Activity", "setting": "[4]", "result": 108, "unit": "%"},
      {"measurement": "Activity", "setting": "[5]", "result": 115, "unit": "%"},
      {"measurement": "Activity", "setting": "[6]", "result": 112, "unit": "%"},
      {"measurement": "Ratio", "setting": "[7]", "result": 14},
      {"measurement": "Activity", "setting": "[8]", "result": 101, "unit": "%"},
      {"measurement": "Activity", "setting": "[9]", "result": 103, "unit": "%"},
      {"measurement": "Ratio", "setting": "[10]", "result": 12800},
      {"measurement": "inhibition", "setting": "[11]", "result": 59, "unit": "%"},
      {"measurement": "Activity", "setting": "[12]", "result": 104, "unit": "%"},
      {"measurement": "Activity", "setting": "[13]", "result": 116, "unit": "%"},
      {"measurement": "Activity", "setting": "[14]", "result": 112, "unit": "%"},
      {"measurement": "Activity", "setting": "[15]", "result": 136, "unit": "%"},
      {"measurement": "inhibition", "setting": "[16]", "result": 47, "unit": "%"},
      {"measurement": "Activity", "setting": "[17]", "result": 125, "unit": "%"},
      {"measurement": "Activity", "setting": "[18]", "result": 99, "unit": "%"},
      {"measurement": "Activity", "setting": "[19]", "result": 116, "unit": "%"},
      {"measurement": "Activity", "setting": "[20]", "result": 91, "unit": "%"},
      {"measurement": "Activity", "setting": "[21]", "result": 105, "unit": "%"},
      {"measurement": "Activity", "setting": "[22]", "result": 106, "unit": "%"},
      {"measurement": "Activity", "setting": "[23]", "result": 104, "unit": "%"},
      {"measurement": "Activity", "setting": "[24]", "result": 107, "unit": "%"},
      {"measurement": "Activity", "setting": "[25]", "result": 80, "unit": "%"},
      {"measurement": "Activity", "setting": "[26]", "result": 76, "unit": "%"},
      {"measurement": "Activity", "setting": "[27]", "result": 101, "unit": "%"}
    ]}
  ]
}
